Tested on: NOMO1
Assay: cell viability relative to DMSO control; higher = less cytotoxic
Conditions: 48 h
Outline: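 Viability, reported as a per-plate percentage of DMSO wells with cell-free wells as background, came from CellTiter-Glo One luminescence. Reading took place after 48 h at 37°C. Before that, NOMO1 or SEM (500 cells/well) or P12-Ichikawa (1000 cells/well) leukemia cells, adapted for at least four passages in each medium, were seeded in 1536-well plates (5 μl) and pin-dosed with library compounds in DMSO, 47 μM to 0.79 nM over 11 threefold points.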

[1] = HPLM + 10% dialyzed FBS, 0.000781 µM
[2] = HPLM + 10% dialyzed FBS, 0.00234 µM
[3] = HPLM + 10% dialyzed FBS, 0.00702 µM
[4] = HPLM + 10% dialyzed FBS, 0.0211 µM
[5] = HPLM + 10% dialyzed FBS, 0.0632 µM
[6] = HPLM + 10% dialyzed FBS, 0.19 µM
[7] = HPLM + 10% dialyzed FBS, 0.569 µM
[8] = HPLM + 10% dialyzed FBS, 1.71 µM
[9] = HPLM + 10% dialyzed FBS, 5.12 µM
[10] = HPLM + 10% dialyzed FBS, 15.4 µM
[11] = HPLM + 10% dialyzed FBS, 46.1 µM
[12] = RPMI 5 mM glucose + 10% FBS, 0.000781 µM
[13] = RPMI 5 mM glucose + 10% FBS, 0.00234 µM
[14] = RPMI 5 mM glucose + 10% FBS, 0.00702 µM
[15] = RPMI 5 mM glucose + 10% FBS, 0.0211 µM
[16] = RPMI 5 mM glucose + 10% FBS, 0.0632 µM
[17] = RPMI 5 mM glucose + 10% FBS, 0.19 µM
[18] = RPMI 5 mM glucose + 10% FBS, 0.569 µM
[19] = RPMI 5 mM glucose + 10% FBS, 1.71 µM
[20] = RPMI 5 mM glucose + 10% FBS, 5.12 µM
[21] = RPMI 5 mM glucose + 10% FBS, 15.4 µM
[22] = RPMI 5 mM glucose + 10% FBS, 46.1 µM
[23] = RPMI 5 mM glucose + 10% dialyzed FBS, 0.000781 µM
[24] = RPMI 5 mM glucose + 10% dialyzed FBS, 0.00234 µM
[25] = RPMI 5 mM glucose + 10% dialyzed FBS, 0.00702 µM
[26] = RPMI 5 mM glucose + 10% dialyzed FBS, 0.0211 µM
[27] = RPMI 5 mM glucose + 10% dialyzed FBS, 0.0632 µM
[28] = RPMI 5 mM glucose + 10% dialyzed FBS, 0.19 µM
[29] = RPMI 5 mM glucose + 10% dialyzed FBS, 0.569 µM
[30] = RPMI 5 mM glucose + 10% dialyzed FBS, 1.71 µM
[31] = RPMI 5 mM glucose + 10% dialyzed FBS, 5.12 µM
[32] = RPMI 5 mM glucose + 10% dialyzed FBS, 15.4 µM
[33] = RPMI 5 mM glucose + 10% dialyzed FBS, 46.1 µM

SMILES | cell viability [1] [%] | cell viability [2] [%] | cell viability [3] [%] | cell viability [4] [%] | cell viability [5] [%] | cell viability [6] [%] | cell viability [7] [%] | cell viability [8] [%] | cell viability [9] [%] | cell viability [10] [%] | cell viability [11] [%] | cell viability [12] [%] | cell viability [13] [%] | cell viability [14] [%] | cell viability [15] [%] | cell viability [16] [%] | cell viability [17] [%] | cell viability [18] [%] | cell viability [19] [%] | cell viability [20] [%] | cell viability [21] [%] | cell viability [22] [%] | cell viability [23] [%] | cell viability [24] [%] | cell viability [25] [%] | cell viability [26] [%] | cell viability [27] [%] | cell viability [28] [%] | cell viability [29] [%] | cell viability [30] [%] | cell viability [31] [%] | cell viability [32] [%] | cell viability [33] [%]
Cc1ccnc2c1NC(=O)c1cccnc1N2C1CC1 | 102 | 104 | 98.7 | 121 | 112 | 112 | 113 | 89.7 | 55.3 | 61.4 | 35.8 | 85.2 | 107 | 93.1 | 100 | 103 | 118 | 93.3 | 84.1 | 59.3 | 68.1 | 59.1 | 94.8 | 102 | 110 | 98.6 | 113 | 97.1 | 110 | 97.4 | 52.7 | 79.4 | 79.4
Oc1nc(-c2ccc(C(F)(F)F)cc2)nc2c1CSCC2 | 125 | 90.4 | 96.4 | 81.1 | 98 | 93.4 | 111 | 98.4 | 118 | 94 | 100 | 88.5 | 88 | 93.5 | 91.8 | 95.5 | 97.9 | 96.2 | 87.6 | 85.8 | 104 | 88.2 | 92.6 | 99.8 | 105 | 94.3 | 98.1 | 102 | 91.8 | 102 | 98.4 | 99.4 | 90.4
CC(=O)Oc1ccccc1C(=O)Nc1ncc([N+](=O)[O-])s1 | 98.9 | 100 | 98.9 | 107 | 111 | 105 | 106 | 96.1 | 98.4 | 71.8 | 89.4 | 84 | 92 | 93.4 | 96.4 | 115 | 92.3 | 102 | 103 | 104 | 97.6 | 96.9 | 83.7 | 95.2 | 77.7 | 86.3 | 94.8 | 98.8 | 95.7 | 98.4 | 86.3 | 69.2 | 75.1
CCOC(=O)\C1=C\[C@]2(CC)CCCN3CCC4=C([C@H]23)[N]1C5=C4C=CC=C5 | 104 | 118 | 122 | 124 | 125 | 126 | 131 | 123 | 124 | 126 | 54.5 | 95.3 | 103 | 113 | 113 | 123 | 120 | 135 | 113 | 102 | 111 | 57.7 | 91.8 | 105 | 118 | 122 | 108 | 113 | 119 | 110 | 108 | 105 | 70.5
Nc1c2c(nc3ccccc13)CCCC2 | 129 | 105 | 122 | 125 | 118 | 100 | 117 | 31.8 | 83.6 | 35.5 | 10.3 | 113 | 123 | 115 | 117 | 108 | 117 | 115 | 41.6 | 98.3 | 40.2 | 8.53 | 118 | 105 | 112 | 119 | 128 | 111 | 111 | 67.9 | 80.1 | 51 | 19.2
CC(C)c1cc(C(C)C)c(CC(=O)N[S+](=O)([O-])Oc2c(C(C)C)cccc2C(C)C)c(C(C)C)c1 | 103 | 110 | 93.9 | 114 | 112 | 88.6 | 92.2 | 98.8 | 100 | 92.5 | 88.9 | 96.3 | 89.8 | 88.6 | 82.8 | 94.8 | 87.8 | 105 | 93 | 98.3 | 90.5 | 86.9 | 95.9 | 89.4 | 91.4 | 89.7 | 87.4 | 91.4 | 97 | 84.5 | 90.8 | 87.9 | 65.3
O=C(c1ccccc1)c1ccc2n1CCC2C(=O)O (stereo not drawn) |  |  |  |  |  |  |  |  |  |  |  | 121 | 113 | 125 | 130 | 108 | 122 | 120 | 110 | 111 | 115 | 98.6 | 107 | 115 | 110 | 121 | 125 | 108 | 116 | 115 | 97.4 | 103 | 107
COc1ccc(C(=O)CC2(O)C(=O)Nc3c(Cl)ccc(Cl)c32)cc1 (stereo not drawn) | 111 | 115 | 128 | 119 | 106 | 119 | 120 | 121 | 77.3 | 34.5 | 26.7 | 95.6 | 108 | 119 | 111 | 109 | 113 | 109 | 123 | 101 | 25.6 | 18.6 | 89.5 | 111 | 110 | 108 | 108 | 120 | 117 | 108 | 99.2 | 26.6 | 22.4

— the supplement of paper PMC11451515
